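How tested: cells in 96-well plates exposed to compound for 48 hours at five concentrations. At the GI50, growth is halved.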 Calls of active or inactive are those of the source. Cut-off read from the data, not from the text of the source: active = GI50 up to about 1.1 µM and inactive = higher.
What was measured:
Assay in all cases: NCI tumour cell line growth inhibition, 48 h
786-0 = test system: 786-0
ACHN = test system: ACHN
DU-145 = test system: DU-145
HCT-15 = test system: HCT-15
HL-60 = test system: HL-60
HOP-62 = test system: HOP-62
HOP-92 = test system: HOP-92
K562 = test system: K562
NCI-H226 = test system: NCI-H226
OVCAR-3 = test system: OVCAR-3
OVCAR-8 = test system: OVCAR-8
RXF 393 = test system: RXF 393
SF-268 = test system: SF-268
SR = test system: SR
UACC-257 = test system: UACC-257
UACC-62 = test system: UACC-62
UO-31 = test system: UO-31

Row | Compound | GI50 (786-0) | GI50 (ACHN) | GI50 (DU-145) | GI50 (HCT-15) | GI50 (HL-60) | GI50 (HOP-62) | GI50 (HOP-92) | GI50 (K562) | GI50 (NCI-H226) | GI50 (OVCAR-3) | GI50 (OVCAR-8) | GI50 (RXF 393) | GI50 (SF-268) | GI50 (SR) | GI50 (UACC-257) | GI50 (UACC-62) | GI50 (UO-31)
1 | O[C@@H]1CCC[C@@H]2NC[C@@H](c3ccc4c(c3)OCO4)[C@H]12 | > 100 µM (inactive) | > 100 µM (inactive) | > 100 µM (inactive) | > 100 µM | 96.4 µM (inactive) | > 100 µM (inactive) | > 100 µM (inactive) | > 100 µM (inactive) | > 100 µM (inactive) | > 100 µM (inactive) | > 100 µM (inactive) | > 100 µM (inactive) | > 100 µM (inactive) | > 100 µM (inactive) | > 100 µM (inactive) | > 100 µM (inactive) | > 100 µM (inactive)
2 | COc1cc(/C=C2\CCC(C)C3=C(c4cc(OC)c(OC)c(OC)c4)C(C#N)=C(N)OC32)cc(OC)c1OC (configuration not stated) | 1.95 µM (inactive) | 3.89 µM (inactive) | 5.09 µM (inactive) | 2.08 µM | 1.67 µM (inactive) | 7.45 µM (inactive) | 3.17 µM (inactive) | 2.85 µM (inactive) | 2.98 µM (inactive) | 4.1 µM (inactive) | 3.3 µM (inactive) | 1.65 µM (inactive) | 3.59 µM (inactive) | 1.49 µM (inactive) | 4.32 µM (inactive) | 2.45 µM (inactive) | 3.92 µM (inactive)
3 | O=C1Nc2ccccc2S/C1=C\c1cccc(C(F)(F)F)c1 | > 100 µM (inactive) | > 100 µM (inactive) | > 100 µM (inactive) | > 100 µM | 5.01 µM (inactive) | > 100 µM (inactive) | 60.1 µM (inactive) | > 100 µM (inactive) | > 100 µM (inactive) | > 100 µM (inactive) | > 100 µM (inactive) | > 100 µM (inactive) | > 100 µM (inactive) | > 100 µM (inactive) | > 100 µM (inactive) | > 100 µM (inactive) | > 100 µM (inactive)
4 | CO[C@H]1O[C@@H]2CO[C@@H](c3ccccc3)O[C@H]2[C@@H]2C/C=C\CCC[C@@]12O | 16.7 µM (inactive) | 17.3 µM (inactive) | 20.7 µM (inactive) | 24.4 µM | 19.8 µM (inactive) | 18 µM (inactive) | 20 µM (inactive) | 20 µM (inactive) | 20.7 µM (inactive) | 16.3 µM (inactive) | 34.1 µM (inactive) | 17.2 µM (inactive) | 21.6 µM (inactive) | 20.3 µM (inactive) | 18.5 µM (inactive) | 15.7 µM (inactive) | 30.8 µM (inactive)
5 | C=C(Cl)C(Cl)(CBr)CCC(Cl)C(C)C (configuration not stated) | 0.337 µM (active) | 2.92 µM (inactive) | 1.37 µM (inactive) | 5.46 µM | 0.226 µM (active) | 1.25 µM (inactive) | 1.6 µM (inactive) | 30.8 µM (inactive) | 30 µM (inactive) | 1.32 µM (inactive) | 3.19 µM (inactive) | 6.3 µM (inactive) | 1.72 µM (inactive) | > 36.6 µM (inactive) | 1.37 µM (inactive) | 3.08 µM (inactive) | 2.94 µM (inactive)
6 | COc1ccc2c(c1)C(OC)C1c3c(cc4c(c3-2)OCO4)CCN1C (configuration not stated) | 3.64 µM (inactive) | 1.82 µM (inactive) | 5.41 µM (inactive) | 2.13 µM | 1.24 µM (inactive) | 2.43 µM (inactive) | 0.925 µM (active) | 3.63 µM (inactive) | 2.39 µM (inactive) | 5.81 µM (inactive) | 2.5 µM (inactive) | 2.06 µM (inactive) | 4.63 µM (inactive) | 2.4 µM (inactive) | 3.38 µM (inactive) | 2.11 µM (inactive) | 1.67 µM (inactive)

Reference: ChEMBL document CHEMBL1201862, “PubChem BioAssay data set” (2004)
